Test results: US8741906B2 (priority 2011, dated 2014)

Experiments:
human CB2 receptors = target: T1, human CB2 receptors (Homo sapiens, UniProt P34972); experiment: functional cAMP assay, human CB2; type: cell-based; settings: CHO cells expressing human CB2, cAMP; read-out: human CB2 EC50
T1 construct: expressed in transfected cells; host or cells: CHO cells
Outline: (§1)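 Compound exposure lasted 30 min at 30 °C in IBMX (1 mM)-containing Krebs Ringer bicarbonate buffer, applied to human CB1- or CB2-expressing CHO cells. Lysates were read by time-resolved FRET cAMP detection, converted via cAMP standard curve (10 μM–0.13 nM), and EC50 values calculated.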

human CB1 receptors = target: T2, human CB1 receptors (Homo sapiens, UniProt P21554); experiment: functional cAMP assay, human CB1; type: cell-based; settings: CHO cells expressing human CB1, cAMP; read-out: human CB1 EC50
T2 construct: expressed in transfected cells; host or cells: CHO cells
Outline: as §1

T2 sequence (P21554 whole entry): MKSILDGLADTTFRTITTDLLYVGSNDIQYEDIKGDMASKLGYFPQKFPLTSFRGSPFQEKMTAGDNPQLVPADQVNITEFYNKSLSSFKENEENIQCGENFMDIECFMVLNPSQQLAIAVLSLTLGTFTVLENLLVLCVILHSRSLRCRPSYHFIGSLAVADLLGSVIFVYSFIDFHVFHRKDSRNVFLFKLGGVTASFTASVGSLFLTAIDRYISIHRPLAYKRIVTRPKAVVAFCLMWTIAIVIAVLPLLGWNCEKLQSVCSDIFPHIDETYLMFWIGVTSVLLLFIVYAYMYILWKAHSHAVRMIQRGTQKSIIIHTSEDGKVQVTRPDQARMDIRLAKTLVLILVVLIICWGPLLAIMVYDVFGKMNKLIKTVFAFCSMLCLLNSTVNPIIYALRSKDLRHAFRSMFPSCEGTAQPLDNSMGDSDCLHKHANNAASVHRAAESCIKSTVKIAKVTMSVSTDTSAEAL
T1 sequence (P34972 whole entry): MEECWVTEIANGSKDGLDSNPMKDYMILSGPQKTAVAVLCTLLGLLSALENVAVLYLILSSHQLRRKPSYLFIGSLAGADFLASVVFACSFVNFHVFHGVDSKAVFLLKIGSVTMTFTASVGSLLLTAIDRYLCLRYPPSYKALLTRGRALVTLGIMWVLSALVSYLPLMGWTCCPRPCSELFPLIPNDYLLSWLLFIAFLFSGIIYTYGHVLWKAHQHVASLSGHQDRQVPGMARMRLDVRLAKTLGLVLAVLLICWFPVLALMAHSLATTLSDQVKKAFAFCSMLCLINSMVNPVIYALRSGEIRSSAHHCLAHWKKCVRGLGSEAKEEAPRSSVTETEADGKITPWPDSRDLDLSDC

SMILES: CC(C)(C)c1nc(N2CCC(F)(F)C2)c2nnn(CC(=O)c3ccncc3)c2n1 [Example 118, 2-[5-tert-Butyl-7-(3,3-difluoro-pyrrolidin-1-yl)-[1,2,3]triazolo[4,5-d]pyrimidin-3-yl]-1-pyridin-4-yl-ethanone]
- EC50 (human CB2 receptors): 0.9 nM
- EC50 (human CB1 receptors): > 10000 nM

SMILES: CC(C)(C)c1nc(N2CCC(F)(F)C2)c2nnn(Cc3c(Cl)ccc(Cl)c3Cl)c2n1 [Example 119, 5-tert-Butyl-7-(3,3-difluoro-pyrrolidin-1-yl)-3-(2,3,6-trichloro-benzyl)-3H-[1,2,3]triazolo[4,5-d]pyrimidine]
- EC50 (human CB2 receptors): 0.3 nM
- EC50 (human CB1 receptors): 91 nM

SMILES: CC(C)(C)c1nc(N2CCC(F)(F)C2)c2nnn(Cc3cccc(C(F)(F)F)c3Cl)c2n1 [Example 120, 5-tert-Butyl-3-(2-chloro-3-trifluoromethyl-benzyl)-7-(3,3-difluoro-pyrrolidin-1-yl)-3H-[1,2,3]triazolo[4,5-d]pyrimidine]
- EC50 (human CB2 receptors): 0.7 nM
- EC50 (human CB1 receptors): 181 nM

SMILES: CC(C)(C)c1nc(N2CCC(F)(F)C2)c2nnn(CCc3cccnc3)c2n1 [Example 121, 5-tert-Butyl-7-(3,3-difluoro-pyrrolidin-1-yl)-3-(2-pyridin-3-yl-ethyl)-3H-[1,2,3]triazolo[4,5-d]pyrimidine]
- EC50 (human CB2 receptors): 0.3 nM
- EC50 (human CB1 receptors): > 10000 nM

SMILES: CC(C)(C)c1nc(N2CCC(F)(F)C2)c2nnn(CCc3ccncc3)c2n1 [Example 122, 5-tert-Butyl-7-(3,3-difluoro-pyrrolidin-1-yl)-3-(2-pyridin-4-yl-ethyl)-3H-[1,2,3]triazolo[4,5-d]pyrimidine]
- EC50 (human CB2 receptors): 1.3 nM
- EC50 (human CB1 receptors): > 10000 nM

SMILES: CC(C)(C)c1nc(N2CCC(F)(F)C2)c2nnn(Cc3c(C(F)(F)F)ccc(Cl)c3Cl)c2n1 [Example 123, 5-tert-Butyl-3-(2,3-dichloro-6-trifluoromethyl-benzyl)-7-(3,3-difluoro-pyrrolidin-1-yl)-3H-[1,2,3]triazolo[4,5-d]pyrimidine]
- EC50 (human CB2 receptors): 0.8 nM
- EC50 (human CB1 receptors): 306 nM

SMILES: CC(C)(C)c1nc(N2CCC(F)(F)C2)c2nnn(Cc3nccc(Cl)c3Cl)c2n1 [Example 124, 5-tert-Butyl-3-(3,4-dichloro-pyridin-2-ylmethyl)-7-(3,3-difluoro-pyrrolidin-1-yl)-3H-[1,2,3]triazolo[4,5-d]pyrimidine]
- EC50 (human CB2 receptors): 0.3 nM
- EC50 (human CB1 receptors): 276 nM

SMILES: CC(C)(C)c1nc(N2CCC(F)(F)C2)c2nnn(C3CS(=O)(=O)C3)c2n1 [Example 125, 5-tert-Butyl-7-(3,3-difluoro-pyrrolidin-1-yl)-3-(1,1-dioxo-1λ^6-thietan-3-yl)-3H-[1,2,3]triazolo[4,5-d]pyrimidine]
- EC50 (human CB2 receptors): 1.9 nM
- EC50 (human CB1 receptors): > 10000 nM

SMILES: CC(C)(C)c1nc(N2CCC(F)(F)C2)c2nnn(C3CCS(=O)(=O)C3)c2n1 (stereo not drawn) [Example 126, 5-tert-Butyl-7-(3,3-difluoro-pyrrolidin-1-yl)-3-(1,1-dioxo-tetrahydro-1λ^6-thiophen-3-yl)-3H-[1,2,3]triazolo[4,5-d]pyrimidine]
- EC50 (human CB2 receptors): 0.3 nM
- EC50 (human CB1 receptors): 496 nM

SMILES: CC(C)(C)c1nc(N2CCC(F)(F)C2)c2nnn(CC(=O)c3ccccn3)c2n1 [Example 127, 2-[5-tert-Butyl-7-(3,3-difluoro-pyrrolidin-1-yl)-[1,2,3]triazolo[4,5-d]pyrimidin-3-yl]-1-pyridin-2-yl-ethanone]
- EC50 (human CB2 receptors): 0.4 nM
- EC50 (human CB1 receptors): > 10000 nM

SMILES: Cc1nnc(Cn2nnc3c(N4CCC(F)(F)C4)nc(C(C)(C)C)nc32)o1 [Example 128, 5-tert-Butyl-7-(3,3-difluoro-pyrrolidin-1-yl)-3-(5-methyl-[1,3,4]oxadiazol-2-ylmethyl)-3H-[1,2,3]triazolo[4,5-d]pyrimidine]
- EC50 (human CB2 receptors): 0.4 nM
- EC50 (human CB1 receptors): > 10000 nM

SMILES: CC(C)(C)c1nc(N2CCC(F)(F)C2)c2nnn(Cc3ccncc3Cl)c2n1 [Example 129, 5-tert-Butyl-3-(3-chloro-pyridin-4-ylmethyl)-7-(3,3-difluoro-pyrrolidin-1-yl)-3H-[1,2,3]triazolo[4,5-d]pyrimidine]
- EC50 (human CB2 receptors): 0.1 nM
- EC50 (human CB1 receptors): 670 nM

SMILES: Cc1nc(Cn2nnc3c(N4CCC(F)(F)C4)nc(C(C)(C)C)nc32)no1 [Example 130, 5-tert-Butyl-7-(3,3-difluoro-pyrrolidin-1-yl)-3-(5-methyl-[1,2,4]oxadiazol-3-ylmethyl)-3H-[1,2,3]triazolo[4,5-d]pyrimidine]
- EC50 (human CB2 receptors): 0.5 nM
- EC50 (human CB1 receptors): 564 nM

SMILES: Cn1nnnc1Cn1nnc2c(N3CCC(F)(F)C3)nc(C(C)(C)C)nc21 [Example 131, 5-tert-Butyl-7-(3,3-difluoro-pyrrolidin-1-yl)-3-(1-methyl-1H-tetrazol-5-ylmethyl)-3H-[1,2,3]triazolo[4,5-d]pyrimidine]
- EC50 (human CB2 receptors): 0.1 nM
- EC50 (human CB1 receptors): > 10000 nM

SMILES: Cn1ncnc1Cn1nnc2c(N3CCC(F)(F)C3)nc(C(C)(C)C)nc21 [Example 132, 5-tert-Butyl-7-(3,3-difluoro-pyrrolidin-1-yl)-3-(2-methyl-2H-[1,2,4]triazol-3-ylmethyl)-3H-[1,2,3]triazolo[4,5-d]pyrimidine]
- EC50 (human CB2 receptors): 0.7 nM
- EC50 (human CB1 receptors): > 10000 nM

SMILES: Cn1c(Cn2nnc3c(N4CCC(F)(F)C4)nc(C(C)(C)C)nc32)nnc1S(C)(=O)=O [Example 133, 5-tert-Butyl-7-(3,3-difluoro-pyrrolidin-1-yl)-3-(5-methanesulfonyl-4-methyl-4H-[1,2,4]triazol-3-ylmethyl)-3H-[1,2,3]triazolo[4,5-d]pyrimidine]
- EC50 (human CB2 receptors): 4.4 nM
- EC50 (human CB1 receptors): > 10000 nM

SMILES: CN(C)c1c(Cl)cncc1Cn1nnc2c(N3CCC(F)(F)C3)nc(C(C)(C)C)nc21 [Example 134, {3-[5-tert-Butyl-7-(3,3-difluoro-pyrrolidin-1-yl)-[1,2,3]triazolo[4,5-d]pyrimidin-3-ylmethyl]-5-chloro-pyridin-4-yl}-dimethyl-amine]
- EC50 (human CB2 receptors): 0.3 nM
- EC50 (human CB1 receptors): 234 nM

SMILES: CC(C)(C)c1nc(N2CCC(F)(F)C2)c2nnn(Cc3c[nH]nc3C(F)(F)F)c2n1 [Example 135, 5-tert-Butyl-7-(3,3-difluoro-pyrrolidin-1-yl)-3-(3-trifluoromethyl-1H-pyrazol-4-ylmethyl)-3H-[1,2,3]triazolo[4,5-d]pyrimidine]
- EC50 (human CB2 receptors): 0.4 nM
- EC50 (human CB1 receptors): 1400 nM

SMILES: Cc1nonc1Cn1nnc2c(N3CC[C@H](O)C3)nc(C(C)(C)C)nc21 [Example 136, (S)-1-[5-tert-Butyl-3-(4-methyl-furazan-3-ylmethyl)-3H-[1,2,3]triazolo[4,5-d]pyrimidin-7-yl]-pyrrolidin-3-ol]
- EC50 (human CB2 receptors): 0.2 nM
- EC50 (human CB1 receptors): > 10000 nM

SMILES: Cc1noc(Cn2nnc3c(N4CC[C@H](O)C4)nc(C(C)(C)C)nc32)n1 [Example 137, (S)-1-[5-tert-Butyl-3-(3-methyl-[1,2,4]oxadiazol-5-ylmethyl)-3H-[1,2,3]triazolo[4,5-d]pyrimidin-7-yl]-pyrrolidin-3-ol]
- EC50 (human CB2 receptors): 18.2 nM
- EC50 (human CB1 receptors): > 10000 nM

SMILES: CC(C)(C)c1nc(N2CC[C@H](O)C2)c2nnn(Cc3ncccc3Cl)c2n1 [Example 138, (S)-1-[5-tert-Butyl-3-(3-chloro-pyridin-2-ylmethyl)-3H-[1,2,3]triazolo[4,5-d]pyrimidin-7-yl]-pyrrolidin-3-ol]
- EC50 (human CB2 receptors): 0.4 nM
- EC50 (human CB1 receptors): > 10000 nM

SMILES: CC(C)(C)c1nc(N2CC[C@H](O)C2)c2nnn(Cc3nc(Cl)ccc3Cl)c2n1 [Example 139, (S)-1-[5-tert-Butyl-3-(3,6-dichloro-pyridin-2-ylmethyl)-3H-[1,2,3]triazolo[4,5-d]pyrimidin-7-yl]-pyrrolidin-3-ol]
- EC50 (human CB2 receptors): 0.3 nM
- EC50 (human CB1 receptors): > 10000 nM

SMILES: CC(C)(C)c1nc(N2CC[C@H](O)C2)c2nnn(Cc3cccnc3Cl)c2n1 [Example 140, (S)-1-[5-tert-Butyl-3-(2-chloro-pyridin-3-ylmethyl)-3H-[1,2,3]triazolo[4,5-d]pyrimidin-7-yl]-pyrrolidin-3-ol]
- EC50 (human CB2 receptors): 0.1 nM
- EC50 (human CB1 receptors): > 10000 nM

SMILES: CC(C)(C)c1nc(N2CC[C@H](O)C2)c2nnn(Cc3cccc(Cl)c3Cl)c2n1 [Example 141, (S)-1-[5-tert-Butyl-3-(2,3-dichloro-benzyl)-3H-[1,2,3]triazolo[4,5-d]pyrimidin-7-yl]-pyrrolidin-3-ol]
- EC50 (human CB2 receptors): 0.5 nM
- EC50 (human CB1 receptors): > 10000 nM

SMILES: CC(C)(C)c1nc(N2CC[C@H](O)C2)c2nnn(Cc3ccccc3C(F)(F)F)c2n1 [Example 142, (S)-1-[5-tert-Butyl-3-(2-trifluoromethyl-benzyl)-3H-[1,2,3]triazolo[4,5-d]pyrimidin-7-yl]-pyrrolidin-3-ol]
- EC50 (human CB2 receptors): 0.2 nM
- EC50 (human CB1 receptors): > 10000 nM

SMILES: CC(C)(C)c1nc(N2CC[C@H](O)C2)c2nnn(Cc3ccccc3S(C)(=O)=O)c2n1 [Example 143, (S)-1-[5-tert-Butyl-3-(2-methanesulfonyl-benzyl)-3H-[1,2,3]triazolo[4,5-d]pyrimidin-7-yl]-pyrrolidin-3-ol]
- EC50 (human CB2 receptors): 0.1 nM
- EC50 (human CB1 receptors): > 10000 nM

SMILES: Cc1cc(Cn2nnc3c(N4CCC(F)(F)C4)nc(C(C)(C)C)nc32)n(C)n1 [Example 144, 5-tert-Butyl-7-(3,3-difluoro-pyrrolidin-1-yl)-3-(2,5-dimethyl-2H-pyrazol-3-ylmethyl)-3H-[1,2,3]triazolo[4,5-d]pyrimidine]
- EC50 (human CB2 receptors): 0.4 nM
- EC50 (human CB1 receptors): 123 nM

SMILES: Cn1nncc1Cn1nnc2c(N3CCC(F)(F)C3)nc(C(C)(C)C)nc21 [Example 145, 5-tert-Butyl-7-(3,3-difluoro-pyrrolidin-1-yl)-3-(3-methyl-3H-[1,2,3]triazol-4-ylmethyl)-3H-[1,2,3]triazolo[4,5-d]pyrimidine]
- EC50 (human CB2 receptors): 0.2 nM
- EC50 (human CB1 receptors): 2250 nM

SMILES: Cc1nnc(Cn2nnc3c(N4CCC(F)(F)C4)nc(C(C)(C)C)nc32)n1C [Example 146, 5-tert-Butyl-7-(3,3-difluoro-pyrrolidin-1-yl)-3-(4,5-dimethyl-4H-[1,2,4]triazol-3-ylmethyl)-3H-[1,2,3]triazolo[4,5-d]pyrimidine]
- EC50 (human CB2 receptors): 0.5 nM
- EC50 (human CB1 receptors): > 10000 nM

SMILES: Cc1c(Cn2nnc3c(N4CCC(F)(F)C4)nc(C(C)(C)C)nc32)ccc[n+]1[O-] [Example 147, 5-tert-Butyl-7-(3,3-difluoro-pyrrolidin-1-yl)-3-(2-methyl-1-oxy-pyridin-3-ylmethyl)-3H-[1,2,3]triazolo[4,5-d]pyrimidine]
- EC50 (human CB2 receptors): 0.3 nM
- EC50 (human CB1 receptors): 209 nM
